Reference: PubChem BioAssay (NCI)
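All cell lines were grown in 96-well plates and treated with compound for 48 hours. GI50 marks 50% less growth. TGI denotes the concentration required for complete inhibition of growth.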

What was measured:
Assay in all cases: growth of human tumour cells (NCI), 48 h
RPMI-8226 leukemia = system: RPMI-8226 leukemia
NCI-H23 lung = system: NCI-H23 lung
HCC-2998 colon = system: HCC-2998 colon
COLO 205 colon = system: COLO 205 colon
UO-31 renal = system: UO-31 renal
HS 578T breast = system: HS 578T breast
SN12C renal = system: SN12C renal
SF-295 CNS = system: SF-295 CNS
NCI-H460 lung = system: NCI-H460 lung
K-562 leukemia = system: K-562 leukemia

| SMILES | GI50 (RPMI-8226 leukemia) [µM] | TGI (RPMI-8226 leukemia) [µM] | GI50 (NCI-H23 lung) [µM] | TGI (NCI-H23 lung) [µM] | GI50 (HCC-2998 colon) [µM] | TGI (HCC-2998 colon) [µM] | GI50 (COLO 205 colon) [µM] | TGI (COLO 205 colon) [µM] | GI50 (UO-31 renal) [µM] | TGI (UO-31 renal) [µM] | GI50 (HS 578T breast) [µM] | TGI (HS 578T breast) [µM] | GI50 (SN12C renal) [µM] | TGI (SN12C renal) [µM] | GI50 (SF-295 CNS) [µM] | TGI (SF-295 CNS) [µM] | GI50 (NCI-H460 lung) [µM] | TGI (NCI-H460 lung) [µM] | GI50 (K-562 leukemia) [µM] | TGI (K-562 leukemia) [µM] |
| --- | --- | --- | --- | --- | --- | --- | --- | --- | --- | --- | --- | --- | --- | --- | --- | --- | --- | --- | --- | --- |
| CCOC(=O)c1ccccc1NC(c1ccccc1)c1ccc2cccnc2c1O (centres undefined) | 3.06 | > 100 | 4.22 | > 100 | 5.77 | > 100 | 3.33 | 24.1 | 2.03 | > 100 | 7.53 | > 100 | 3.83 | > 100 | 3.24 | > 100 | 2.82 | 78.4 | 3.34 | > 100 |
| Cn1cnc2nc(Cl)nc(Cl)c21 | 0.591 | 26.4 | 10.4 | 34.2 | 3.85 | 15.6 | 2.18 | 5.27 | 9.96 | > 100 | 2.28 | 7.53 | 3.37 | 24.1 | 3.57 | > 100 | 2.04 | 6.12 | 0.713 | 94.7 |
| CN1CCN(Cc2ccc(NC(=O)c3cncc(C#Cc4c(N)ncc5ccc(F)cc45)c3)cc2C(F)(F)F)CC1 | 0.757 | 3.87 | 0.574 | 4.58 | 0.653 | 9.66 | 0.206 | 3.32 | 0.688 | 1.5 | 0.512 | 1.93 | 0.937 | 5.3 | 4.37 | 13 | 0.647 | 3.33 | 0.005 | 1.07 |
| Nc1nc(N)c2nn(-c3ccc(C(=O)O)cc3)nc2n1 |  | > 100 |  | > 100 |  | > 100 |  | > 100 |  | > 100 |  | > 100 |  | > 100 |  | > 100 |  | > 100 |  | > 100 |
| CC(=O)OC1C(OC/C2=C/C3[C@@H](C(C)C)CC=C(C)[C@@H]3CC(OC(=O)/C=C/c3cn(C)cn3)[C@]3(C)C=C[C@@]2(O)O3)OCC(O)C1O (some centres undefined) | 0.0244 | > 50 | 0.0227 | > 50 | 0.0134 | 0.0658 | 0.0112 | 0.0975 | 1.13 | > 50 | 0.00831 | 0.035 | 0.186 | > 50 | 0.03 | 0.296 | 0.00928 |  | 0.0157 | > 50 |
| C=CC(=O)N1CC[C@@H](Oc2nc(Nc3ccc(N4CCC(N5CCN(C)CC5)CC4)cc3)c(C(N)=O)nc2CC)C1 | > 100 | > 100 | > 100 | > 100 | > 100 | > 100 | > 100 | > 100 | > 100 | > 100 | > 100 | > 100 | > 100 | > 100 | > 100 | > 100 | > 100 | > 100 | > 100 | > 100 |
| COc1cc2c(cc1Nc1nc(Nc3ccsc3C(N)=O)c3cc[nH]c3n1)N(C(=O)CN(C)C)CCC2 | 1.24 | 6.56 | 0.343 | 8.55 | 0.2 | 2.27 | < 0.0025 | 0.394 | 3.35 | 7.39 | 1.14 | 5.42 | 3.67 | 11.8 | 0.974 | 4.8 | 0.498 | 3.21 | 0.875 | 13.7 |
